From patent publication US8057829B2, “Methods for repelling insects using sesquiterpene hydrocarbons and their derivatives” (Sterling International Inc., priority 2008, dated 2011)

Tests used:
[1] = tested on: antennae of housefly, sand fly, and mosquitoes Aedes aegypti, Anopheles gambiae, Anopheles stephensi; assay: GC-EAD antennal responses to SPME samples of clove essential oil; conditions: component of clove essential oil SPME sample; response by one or more of the insects; FIG. 1
Experimental: The GC-EAD antennal response of a female housefly (Musca domestica), sand fly (Phlebotomus papatasi), and mosquitoes including the species Aedes aegypti, Anopheles gambiae, and Anopheles stephensi were tested with clove essential oil. FIG. 1 is a simultaneous recording of GC flame ionization detection (FID) and electroantennographic detection (EAD) of the insect antennae to solid phase microextraction (SPME: CAR/PDMS) samples of clove essential oil in a 20 ml glass vial for 20 sec.
The following procedures were employed to test the EAD response of an insect antenna to a repellent compound. The GC-EAD technique provides an efficient tool for screening behaviorally active repellents. Several synthetic mixtures of potential insect repellent candidates, mostly sesquiterpene hydrocarbons and derivatives, were analyzed in splitless mode using a Varian CP-3800 GC equipped with a polar column (Innowax; 1.0 μm film thickness, 30 m×0.53 mm ID; J & W Scientific), and a 1:1 effluent splitter that allowed simultaneous flame ionization detection (FID) and EAD of the separated volatile compounds. Helium was used as the carrier gas, and the injector temperature was 220° C. The column temperature was 50° C. for 2 min, rising to 240° C. at 10° C./min, then held for 10 min. The outlet for the EAD was held in a humidified air stream flowing at 0.5 liter/min. over an antennal preparation. A glass capillary indifferent electrode filled with Beadle-Ephrussi Ringer, and grounded via a silver wire, was inserted into the severed insect's head with the antennae. A similar recording electrode connected to a high-impedance DC amplifier with automatic baseline drift compensation was placed in contact with the distal end of one antenna (Zhang et al., Chemoecology, 10:69-80 (2000)). The antennal signals were stored and analyzed on a PC equipped with a serial IDAC interface box and the program EAD ver. 2.5 (Syntech, Hilversum, The Netherlands). The compound 1-octen-3-ol (known attractant for many flies and mosquitoes) was included in most of the synthetic mixtures, as a positive control. […]

Anopheles stephensi [2] = assay: K&D module behavioral bioassay (topical repellency, biting); assay type: in vivo
Experimental: (§1) The bioassays were conducted with a six-cell in vitro K&D module system, as disclosed in Klun and Debboun, J. Med. Entomol. 37:177-181 (2000), loaded with an “artificial blood” (CPDA+ATP) solution.
(§2) Clove essential oil, patchouli oil, and EAD-active potential repellents, β-caryophyllene, isocaryophyllene, (+)-longifolene, and their 1:1:1 mixture, plus α-guaiene, caryophyllene oxide, and a β-caryophyllene ketone, were tested using the six-cell in vitro K&D module system (Klun and Debboun, J. Med. Entomol. 37:177-181 (2000)) loaded with an “artificial blood” (CPDA+ATP) solution on both Ae. aegypti and An. stephensi in a dose-response fashion. The K&D in vitro assay system has three components: (1) a Plexiglas™ 29.7 cm.×7.1 cm K&D module composed of six adjacent cells, each designed to hold mosquitoes and each having a rectangular 3×4 cm floor hole that is opened and closed by a sliding door; (2) a Plexiglas™ six-well 29.7 cm×7.1 cm water water-bath warmed (38° C.) reservoir with six 3×4 cm wells designed to match the sliding-door openings of the K&D module base and to contain 6 mL warmed “artificial blood” wells covered with a collagen membrane; and (3) a 29.7 cm×7.1 cm'0.4 cm Teflon® separator having six rectangular openings like the K&D module. The K&D module was connected to a constant temperature water circulator at 38° C. The cells were covered with an Edicol collagen membrane strip. Nylon organdy strips with ink cell patterns were numbered and randomly treated with […] of the tested chemical in ethanol (ethanol alone as blank control), plus DEET (ca. 10 μg/cm^2) as a positive control. This treated nylon organdy strip was placed on top of the collagen membrane. The upper section of the K & D module with the six cells each containing 5 mosquitoes (5-10 d old, starved for 24 hr before testing) was placed on top of the nylon strip. The doors to the cells were slid open so the mosquitoes could be free to feed on the “artificial blood” via the collagen membrane if they were hungry. The experiments were allowed to run for 3 minutes, and the number of mosquitoes feeding (biting) in each cell was recorded. After each experiment, the nylon and collagen strips were removed. The CPDA+ATP solution was removed and allowed to dry prior to starting the next experiment. The experiments on each chemical and each mosquito species were run three times before the bottom section with circulated water was cleaned prior to use again.

Aedes aegypti [3] = assay: as above; assay type: in vivo
Experimental: as §1, §2

[4] = tested on: antennae of housefly, sand fly, and mosquitoes (Aedes aegypti, Aedes increpitus, Anopheles gambiae); assay: GC-EAD antennal responses to SPME samples of patchouli essential oil; conditions: component of patchouli essential oil SPME sample; response by one or more of the insects; FIG. 2
Experimental: The following procedures were employed to test the EAD response of an insect antenna to a repellent compound. The GC-EAD technique provides an efficient tool for screening behaviorally active repellents. Several synthetic mixtures of potential insect repellent candidates, mostly sesquiterpene hydrocarbons and derivatives, were analyzed in splitless mode using a Varian CP-3800 GC equipped with a polar column (Innowax; 1.0 μm film thickness, 30 m×0.53 mm ID; J & W Scientific), and a 1:1 effluent splitter that allowed simultaneous flame ionization detection (FID) and EAD of the separated volatile compounds. Helium was used as the carrier gas, and the injector temperature was 220° C. The column temperature was 50° C. for 2 min, rising to 240° C. at 10° C./min, then held for 10 min. The outlet for the EAD was held in a humidified air stream flowing at 0.5 liter/min. over an antennal preparation. A glass capillary indifferent electrode filled with Beadle-Ephrussi Ringer, and grounded via a silver wire, was inserted into the severed insect's head with the antennae. A similar recording electrode connected to a high-impedance DC amplifier with automatic baseline drift compensation was placed in contact with the distal end of one antenna (Zhang et al., Chemoecology, 10:69-80 (2000)). The antennal signals were stored and analyzed on a PC equipped with a serial IDAC interface box and the program EAD ver. 2.5 (Syntech, Hilversum, The Netherlands). The compound 1-octen-3-ol (known attractant for many flies and mosquitoes) was included in most of the synthetic mixtures, as a positive control.

Anopheles stephensi [5] = assay: Y-tube olfactometer behavioral bioassay (spatial repellency); assay type: in vivo
Experimental: (§3) Aegypti and An. stephensi, and one species of sand fly, P. papatasi. Both the mosquitoes and the sand flies used in the study were from colonies maintained at the Walter Reed Army Institute of Research, Department of Entomology, Silver Spring, Md. This Y-tube bioassay system, equipped with CO2-enriched air (ca. 1 l/min) as an attractant, was made from three clear acrylic tubes (4″ diameter; 12″ length) with symmetrical 120° angles among the three tube arms; and a screen butterfly valve on the top part of the bottom releasing tube. These spatial repellency tests were carried out during 8:00 am-12:00 pm (photophase) time period for Ae. aegypti and 1:00-5:00 pm (shifted scotophase) time period for the species of night-flying mosquitoes and sand fly in a temperature and humidity controlled testing room (23-25° C. and 20-40% RH). Female mosquitoes or sand flies were stored at ˜25-26° C., 50-89% RH, 12:12 hr. (L/D), fed with 10% sucrose solution before testing. The candidate chemical (individual or mixture) dispenser and a blank control were placed in the upper left or right arm of the Y-tube before releasing 25-40, 6 to 10 day-old female mosquitoes (or 3 to 10 day-old sand flies) into the bottom tube via a small hole. After a 30-60 sec acclimation period, the butterfly screen valve (door) on the top of the bottom tube was opened. After 10 min., the valve was closed and the numbers of mosquitoes or sand flies in each arm (including the bottom tube) were counted. In order to minimize the position effect, the same experiment was repeated once with the treatment and blank control arms shifted using a new (clean) Y-tube olfactometer and a new batch of mosquitoes/sand flies. Data from these two replicates were pooled for χ2 goodness of fit test (df=1) between the treatment and blank control.

Aedes aegypti [6] = assay: as above; assay type: in vivo
Experimental: as §3

Phlebotomus papatasi = assay: as above; assay type: in vivo
Experimental: as §3

[7] = tested on: Aedes Aegypti, Anopheles stephensi and the sand fly P. papatasi; assay: Y-tube bioassay, statements pooled for the three species; assay type: in vivo, Aedes aegypti; Anopheles stephensi; Phlebotomus papatasi; conditions: clove oil ca. 10 mg/day, patchouli oil 15 mg/d, sesquiterpenes 1 to 35 mg/d release
Experimental: as §3

[8] = 10 μg/cm^2, DEET values are the positive control run with the chemical
[9] = Anopheles stephensi females, release rate per chemical (β-Caryophyllene 10 mg/day), 10 min
[10] = Aedes aegypti females, release rate per chemical (1-60 mg/day), 10 min
[11] = Phlebotomus papatasi females, release rate per chemical, 10 min

## C=CCc1ccc(O)c(OC)c1 [eugenol]
[1]
  GC-EAD antennal activity: EAD-inactive (or weakly active)

## C=C(C)[C@@H]1CC[C@H](C)C2=C(C1)[C@@H](C)CC2 [α-Guaiene, α-guaiene]
Anopheles stephensi [2]; [8]
  % of biting (±SE) (N = 3): 40 ± 0b %
Anopheles stephensi [2]; 100 μg/cm^2
  % of biting (±SE) (N = 3): 0 ± 0a %
Anopheles stephensi [2]; 500 μg/cm^2
  % of biting (±SE) (N = 3): 0 ± 0a %
Anopheles stephensi [2]; 1000 μg/cm^2
  % of biting (±SE) (N = 3): 0 ± 0a %
Aedes aegypti [3]; [8]
  % of biting (±SE) (N = 3): 33 ± 7b %
Aedes aegypti [3]; 100 μg/cm^2
  % of biting (±SE) (N = 3): 0 ± 0a %
Aedes aegypti [3]; 500 μg/cm^2
  % of biting (±SE) (N = 3): 0 ± 0a %
Aedes aegypti [3]; 1000 μg/cm^2
  % of biting (±SE) (N = 3): 0 ± 0a %
[4]
  GC-EAD antennal activity: elicited EAD-activity
Anopheles stephensi [5]; Anopheles stephensi females, release rate per chemical (1-60 mg/day; β-Caryophyllene 10 mg/day), 10 min
  Number of mosquitoes in each arm: Repellent: 6
Anopheles stephensi [5]; [9]
  Number of mosquitoes in each arm: Blank: 20
  Number of mosquitoes in each arm: Bottom: 40
Anopheles stephensi [5]; Anopheles stephensi, β-Caryophyllene 10 mg/day
  SAI (Spatial Activity Index): 0.54
Aedes aegypti [6]; [10]
  Number of mosquitoes in each arm: Blank: 49
  Number of mosquitoes in each arm: Bottom: 16
Aedes aegypti [6]; Aedes aegypti females, release rate per chemical (1-60 mg/day), 10 min, two replicates pooled
  Number of mosquitoes in each arm: Repellent: 13
Aedes aegypti [6]; Aedes aegypti, (Nc − Nt)/(Nc + Nt), −1 to 1, zero indicating no response
  SAI (Spatial Activity Index): 0.58
Phlebotomus papatasi; Phlebotomus papatasi
  SAI (Spatial Activity Index): 0.78
Phlebotomus papatasi; Phlebotomus papatasi (sand fly) females, release rate per chemical (1-35 mg/day), 10 min
  Number of mosquitoes in each arm: Repellent: 5
Phlebotomus papatasi; [11]
  Number of mosquitoes in each arm: Blank: 41
  Number of mosquitoes in each arm: Bottom: 17
[7]
  spatial repellency, in words: showed spatial repellency effects
